Assay results taken from ChEMBL document CHEMBL1143107 (Bioorg Med Chem, 2008).

Target: T1, Prostaglandin G/H synthase 2 (Homo sapiens, UniProt P35354)
T1 sequence (P35354 whole entry): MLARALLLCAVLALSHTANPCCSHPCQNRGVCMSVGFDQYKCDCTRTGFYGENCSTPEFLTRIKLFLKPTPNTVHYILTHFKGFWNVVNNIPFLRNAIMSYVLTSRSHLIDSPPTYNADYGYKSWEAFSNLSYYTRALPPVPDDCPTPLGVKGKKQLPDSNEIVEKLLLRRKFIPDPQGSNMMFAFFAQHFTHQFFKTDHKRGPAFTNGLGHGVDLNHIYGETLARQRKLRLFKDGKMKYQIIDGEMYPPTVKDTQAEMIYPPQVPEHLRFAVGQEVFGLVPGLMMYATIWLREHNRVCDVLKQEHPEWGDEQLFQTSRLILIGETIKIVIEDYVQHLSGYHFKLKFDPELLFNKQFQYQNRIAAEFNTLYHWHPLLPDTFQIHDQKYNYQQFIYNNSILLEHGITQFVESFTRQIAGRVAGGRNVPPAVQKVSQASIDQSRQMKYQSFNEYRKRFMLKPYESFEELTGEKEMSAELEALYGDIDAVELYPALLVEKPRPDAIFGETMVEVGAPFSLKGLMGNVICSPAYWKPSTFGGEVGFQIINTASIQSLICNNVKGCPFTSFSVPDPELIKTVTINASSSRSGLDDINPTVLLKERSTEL
Description: Inhibition of human COX2 in human whole blood

| Compound | IC50 [µM] |
| --- | --- |
| CS(=O)(=O)c1ccc(-c2nc(NCc3cccnc3)cc(C(F)(F)F)n2)cc1 | > 10 |
| NS(=O)(=O)c1ccc(-c2nc(NCc3ccccc3)cc(C(F)(F)F)n2)cc1 | > 10 |
| NS(=O)(=O)c1ccc(-c2nc(NCc3cccnc3)cc(C(F)(F)F)n2)cc1 | > 10 |
| NS(=O)(=O)c1ccc(-c2nc(NCC3CCCCC3)cc(C(F)(F)F)n2)cc1 | 0.803 |
| NS(=O)(=O)c1ccc(-c2nc(NCc3csc4ccccc34)cc(C(F)(F)F)n2)cc1 | > 10 |
| CS(=O)(=O)c1ccc(-c2nc(NCc3csc4ccccc34)cc(C(F)(F)F)n2)cc1 | > 10 |
| CS(=O)(=O)c1ccc(-c2nc(NCc3ccccn3)cc(C(F)(F)F)n2)cc1 | > 10 |
| CS(=O)(=O)c1ccc(-c2nc(NCc3ccc4ccccc4c3)cc(C(F)(F)F)n2)cc1 | > 10 |
| CS(=O)(=O)c1ccc(-c2nc(NCC3CCCC3)cc(C(F)(F)F)n2)cc1 | > 10 |
| NS(=O)(=O)c1ccc(-c2nc(NCc3cc4ccccc4s3)cc(C(F)(F)F)n2)cc1 | 0.14 |
| CS(=O)(=O)c1ccc(-c2nc(NCC3CC=CCC3)cc(C(F)(F)F)n2)cc1 (centres undefined) | 0.0329 |
| CS(=O)(=O)c1ccc(-c2nc(NCc3nc4ccccc4[nH]3)cc(C(F)(F)F)n2)cc1 | > 10 |
| Cn1cccc1CNc1cc(C(F)(F)F)nc(-c2ccc(S(C)(=O)=O)cc2)n1 | 0.0288 |
| NS(=O)(=O)c1ccc(-c2nc(NCc3ccncc3)cc(C(F)(F)F)n2)cc1 | 3.33 |
| NS(=O)(=O)c1ccc(-c2nc(NCc3cccs3)cc(C(F)(F)F)n2)cc1 | 0.158 |
| NS(=O)(=O)c1ccc(-c2nc(NCc3ccccn3)cc(C(F)(F)F)n2)cc1 | > 10 |

Target: T1, Prostaglandin G/H synthase 2
Remark: another data set of the same source

| Compound | IC50 [µM] |
| --- | --- |
| CS(=O)(=O)c1ccc(-c2nc(NCc3cccnc3)cc(C(F)(F)F)n2)cc1 | > 10 |
| NS(=O)(=O)c1ccc(-c2nc(NCc3ccccc3)cc(C(F)(F)F)n2)cc1 | 3.98 |
| NS(=O)(=O)c1ccc(-c2nc(NCc3cccnc3)cc(C(F)(F)F)n2)cc1 | > 10 |
| NS(=O)(=O)c1ccc(-c2nc(NCC3CCCCC3)cc(C(F)(F)F)n2)cc1 | 0.712 |
| NS(=O)(=O)c1ccc(-c2nc(NCc3csc4ccccc34)cc(C(F)(F)F)n2)cc1 | 10 |
| CS(=O)(=O)c1ccc(-c2nc(NCc3csc4ccccc34)cc(C(F)(F)F)n2)cc1 | 10 |
| CS(=O)(=O)c1ccc(-c2nc(NCc3ccccn3)cc(C(F)(F)F)n2)cc1 | > 10 |
| CS(=O)(=O)c1ccc(-c2nc(NCc3ccc4ccccc4c3)cc(C(F)(F)F)n2)cc1 | > 10 |
| CS(=O)(=O)c1ccc(-c2nc(NCC3CCCC3)cc(C(F)(F)F)n2)cc1 | > 10 |
| NS(=O)(=O)c1ccc(-c2nc(NCc3cc4ccccc4s3)cc(C(F)(F)F)n2)cc1 | 0.0152 |
| CS(=O)(=O)c1ccc(-c2nc(NCC3CC=CCC3)cc(C(F)(F)F)n2)cc1 (centres undefined) | 0.0431 |
| CS(=O)(=O)c1ccc(-c2nc(NCc3nc4ccccc4[nH]3)cc(C(F)(F)F)n2)cc1 | > 10 |
| Cn1cccc1CNc1cc(C(F)(F)F)nc(-c2ccc(S(C)(=O)=O)cc2)n1 | 0.178 |
| NS(=O)(=O)c1ccc(-c2nc(NCc3ccncc3)cc(C(F)(F)F)n2)cc1 | 1.89 |
| NS(=O)(=O)c1ccc(-c2nc(NCc3cccs3)cc(C(F)(F)F)n2)cc1 | 0.0223 |
| NS(=O)(=O)c1ccc(-c2nc(NCc3ccccn3)cc(C(F)(F)F)n2)cc1 | 3 |

Species on record: Homo sapiens
Test: Ratio of IC50 for human COX1 to IC50 for human COX2 in human whole blood
Assay type: tissue-based

| Compound | Ratio IC50 |
| --- | --- |
| CS(=O)(=O)c1ccc(-c2nc(NCc3cccnc3)cc(C(F)(F)F)n2)cc1 | > 1 |
| NS(=O)(=O)c1ccc(-c2nc(NCc3ccccc3)cc(C(F)(F)F)n2)cc1 | > 5 |
| NS(=O)(=O)c1ccc(-c2nc(NCc3cccnc3)cc(C(F)(F)F)n2)cc1 | > 1 |
| NS(=O)(=O)c1ccc(-c2nc(NCC3CCCCC3)cc(C(F)(F)F)n2)cc1 | > 124 |
| NS(=O)(=O)c1ccc(-c2nc(NCc3csc4ccccc34)cc(C(F)(F)F)n2)cc1 | > 1 |
| CS(=O)(=O)c1ccc(-c2nc(NCc3csc4ccccc34)cc(C(F)(F)F)n2)cc1 | > 1 |
| CS(=O)(=O)c1ccc(-c2nc(NCc3ccccn3)cc(C(F)(F)F)n2)cc1 | > 1 |
| CS(=O)(=O)c1ccc(-c2nc(NCc3ccc4ccccc4c3)cc(C(F)(F)F)n2)cc1 | > 1 |
| CS(=O)(=O)c1ccc(-c2nc(NCC3CCCC3)cc(C(F)(F)F)n2)cc1 | > 1 |
| NS(=O)(=O)c1ccc(-c2nc(NCc3cc4ccccc4s3)cc(C(F)(F)F)n2)cc1 | > 71 |
| CS(=O)(=O)c1ccc(-c2nc(NCC3CC=CCC3)cc(C(F)(F)F)n2)cc1 (centres undefined) | > 304 |
| CS(=O)(=O)c1ccc(-c2nc(NCc3nc4ccccc4[nH]3)cc(C(F)(F)F)n2)cc1 | > 1 |
| Cn1cccc1CNc1cc(C(F)(F)F)nc(-c2ccc(S(C)(=O)=O)cc2)n1 | > 3470 |
| NS(=O)(=O)c1ccc(-c2nc(NCc3ccncc3)cc(C(F)(F)F)n2)cc1 | > 3 |
| NS(=O)(=O)c1ccc(-c2nc(NCc3cccs3)cc(C(F)(F)F)n2)cc1 | > 634 |
| NS(=O)(=O)c1ccc(-c2nc(NCc3ccccn3)cc(C(F)(F)F)n2)cc1 | > 10 |

Species on record: Homo sapiens
Test: Ratio of IC50 for human COX1 to IC50 for human COX2

| Compound | Ratio IC50 |
| --- | --- |
| CS(=O)(=O)c1ccc(-c2nc(NCc3cccnc3)cc(C(F)(F)F)n2)cc1 | > 1 |
| NS(=O)(=O)c1ccc(-c2nc(NCc3ccccc3)cc(C(F)(F)F)n2)cc1 | > 25 |
| NS(=O)(=O)c1ccc(-c2nc(NCc3cccnc3)cc(C(F)(F)F)n2)cc1 | > 1 |
| NS(=O)(=O)c1ccc(-c2nc(NCC3CCCCC3)cc(C(F)(F)F)n2)cc1 | > 140 |
| NS(=O)(=O)c1ccc(-c2nc(NCc3csc4ccccc34)cc(C(F)(F)F)n2)cc1 | > 10 |
| CS(=O)(=O)c1ccc(-c2nc(NCc3csc4ccccc34)cc(C(F)(F)F)n2)cc1 | > 1 |
| CS(=O)(=O)c1ccc(-c2nc(NCc3ccccn3)cc(C(F)(F)F)n2)cc1 | > 1 |
| CS(=O)(=O)c1ccc(-c2nc(NCc3ccc4ccccc4c3)cc(C(F)(F)F)n2)cc1 | > 1 |
| CS(=O)(=O)c1ccc(-c2nc(NCC3CCCC3)cc(C(F)(F)F)n2)cc1 | > 1 |
| NS(=O)(=O)c1ccc(-c2nc(NCc3cc4ccccc4s3)cc(C(F)(F)F)n2)cc1 | 6570 |
| CS(=O)(=O)c1ccc(-c2nc(NCC3CC=CCC3)cc(C(F)(F)F)n2)cc1 (centres undefined) | > 2320 |
| CS(=O)(=O)c1ccc(-c2nc(NCc3nc4ccccc4[nH]3)cc(C(F)(F)F)n2)cc1 | > 1 |
| Cn1cccc1CNc1cc(C(F)(F)F)nc(-c2ccc(S(C)(=O)=O)cc2)n1 | > 562 |
| NS(=O)(=O)c1ccc(-c2nc(NCc3ccncc3)cc(C(F)(F)F)n2)cc1 | > 52 |
| NS(=O)(=O)c1ccc(-c2nc(NCc3cccs3)cc(C(F)(F)F)n2)cc1 | 3530 |
| NS(=O)(=O)c1ccc(-c2nc(NCc3ccccn3)cc(C(F)(F)F)n2)cc1 | > 33 |
